Experimental data as given in the NIST ThermoML archive (doi:10.1021/je050013y).
± gives the expanded uncertainty stated by the source.

How the values were obtained:
[1] = 293.15 K; 101.33 kPa; Liquid
[2] = refractive index (Na D-line) (dimensionless); conditions: 293.15 K; 101.33 kPa; Liquid; Standard Abbe refractometry

SMILES	mass density [1] [kg/m3]	refractive index [2]
CC(C)=O [acetone]	784.6 ± 3	1.3589 ± 0.0007
COC(C)(C)OC [3,3-dimethyl-2,4-dioxapentane]	840.2 ± 4.5	1.378 ± 0.0007
CO [methanol]	786.5 ± 0.3	1.3289 ± 0.0007
